Results reported in patent publication US5464834A, “N-substituted N'-heterobicyclic piperazines having pharmaceutical activity” (Adir et Compagnie, priority 1992, dated 1995).

Columns and labels:
[1] = biological target: T1, 5HT1A receptors (Rattus norvegicus, UniProt P19327); experiment: Flat body posture (FBP), agonist (alone) and antagonist (vs 8-OH-DPAT); type: in vivo, rat (male Wistar); design: from tissue; host or cells: whole living male Wistar rats (endogenous receptor); details: for ED50: rat, sc
T1 sequence (P19327 1-422): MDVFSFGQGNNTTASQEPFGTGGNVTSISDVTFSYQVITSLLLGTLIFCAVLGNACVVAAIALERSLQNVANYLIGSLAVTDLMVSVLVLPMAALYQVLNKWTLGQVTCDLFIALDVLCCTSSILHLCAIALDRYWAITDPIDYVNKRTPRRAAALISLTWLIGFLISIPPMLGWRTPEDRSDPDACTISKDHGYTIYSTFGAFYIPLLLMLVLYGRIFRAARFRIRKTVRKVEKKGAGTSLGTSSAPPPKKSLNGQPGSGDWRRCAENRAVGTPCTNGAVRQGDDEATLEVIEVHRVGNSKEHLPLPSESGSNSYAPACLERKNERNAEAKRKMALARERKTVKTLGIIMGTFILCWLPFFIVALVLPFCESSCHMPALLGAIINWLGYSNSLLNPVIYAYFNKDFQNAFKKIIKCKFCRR
Description: (§1) The tests were carried out using male Wistar rats weighing 200 to 220 g having free access to their food and to their drinking water in standard cages.
(§2) The animals are isolated individually for the tests for hypothermia, corticosterone secretion and flat body posture, or combined in groups of three for the tailflick test.
(§3) The compounds to be studied were administered by the subcutaneous route (s.c.) 60 minutes before the beginning of the test, that is to say 30 minutes before the solvent (agonist responses) or the 8-OH-DPAT (antagonist responses).
(§4) In all of the tests the solvent is used in parallel as a control. The animals were left to rest in their cage during the period between the injections and the evaluation. For the agonist studies, the solvent was administered at 1 ml/kg s.c. 30 minutes before the beginning of the test. For the antagonist studies, doses of 8-OH-DPAT that induce sub-maximal responses were chosen, that is doses of 0.63, 0.16, 0.16 and 0.16 mg/kg s.c. for, respectively, the tail flick test, flat body posture test, corticosterone secretion test and hypothermia test.
(§5) The same animals were used to evaluate the influence of the compounds studied on FBP and on the determination of the plasma concentration of CS. All of the tests were carried out in the morning between 10.30 and 12.300 that is to say when the circadian levels of CS are lowest.
25 minutes after the treatment (that is to say 5 minutes before decapitation) the animals are observed in their cages and the presence or absence of FBP is noted.
(§6) The presence of FBP is defined by a characteristic posture of the animal. That posture is in the ventral decubitus position with the posterior limbs clearly extended. 5 minutes after the observation of FBP, the animals are decapitated and the blood from the trunk is collected in cooled tubes containing 50 μl of a 10% EDTA solution. After centrifugation at 4000 revs/min, the plasma is removed and stored at -30° C. until determination.
(§7) In general, after variance analysis, the results are subjected to the Dunett test. The results are taken as significant if p <0.05.
For the dose-response for the induction and inhibition of FBP, the ED50 values (doses at which 50% of the animals show a response) were calculated by the Litchfield and Wilcoxon method.
(§8) The doses of the compounds tested are all expressed in base terms. Unless specified otherwise, all of the compounds were dissolved in sterile water (to which if necessary a few drops of lactic acid were added) and administered at a volume of 1 ml/kg s.c.

[2] = biological target: T1, 5HT1A receptors; experiment: Spontaneous tail flick (STF) test, agonist (alone) and antagonist (vs 8-OH-DPAT); type: in vivo, rat (male Wistar); design: from tissue; host or cells: whole living male Wistar rats (endogenous receptor)
Description: as §1, §2, §3, §4
The tail flicks were determined on the animals in horizontal opaque plastics cylinders with the tail of the animals hanging freely on the edge of the laboratory work bench. After allowing 5 minutes for adaptation, the number of movements made in 5 minutes was recorded. An STF is defined as being an elevation of the tail to a level higher than that of the axis of the body [Millan M. J. et al., J. Pharmacol. Exp. Ther., 256, 973-982 (1990)].
as §7, §8

[3] = biological target: T1, 5HT1A receptors; experiment: In vitro binding test, 5HT1A receptors ([3H]-8-OH-DPAT, hippocampus membranes); design: The hippocampus of the brains of decapitated rats was immediately frozen; from tissue; host or cells: hippocampus membranes of male Wistar rats; species or system rat (male Wistar); details: rat hippocampus; [3H]-8-OH-DPAT 0.4 nM; 30 min at 25° C; read-out: AFFINITY (pKi) (converted)
Description: as §1
The hippocampus of the brains of decapitated rats was immediately frozen on solid carbon dioxide and then kept at -80° C. until preparation of the membranes. The tissue was homogenised at 4° C. in the appropriate buffer using a Polytron (Brinkman Instruments, Lucerne, Switzerland) and centrifuged at 20,000 revs/min.
Incubation was carried out for 30 minutes at 25° C. Non-specific binding was established by […] of 5HT. The tests were terminated by rapid filtration using a Brandel harvester through glass fibre filters pretreated with 0.1% polyethylene imine.
The IC50 values were determined in accordance with process 8 of Tallarida R. J. and Murray R. B., Manual of Pharmacological calculations with computer programs, Springer Verlag, New York, (1987).
The pKi was calculated in accordance with the following formula: [formula] wherein [L] is the concentration of the hot ligand (^[3] H-8-OH-DPAT, 0.4 nM) and Kd is the apparent dissociation constant determined from the saturation experiments.
The substances studied were dissolved in the incubation buffer.
Binding of 5HT1A receptors

[4] = biological target: T1, 5HT1A receptors; experiment: Corticosterone secretion (CS), agonist (alone) and antagonist (vs 8-OH-DPAT); type: in vivo, rat (male Wistar); design: from tissue; host or cells: whole living male Wistar rats (endogenous receptor)
Description: as §1, §2, §3, §4, §5, §6
The CS was determined by a radio-competitive determination for a plasma protein that binds the CS: transcortine. The latter is obtained from a monkey serum. The separation of the CS-transcortine complexes from the free CS was carried out by means of a solution of dextran and active carbon. The detection limit was 50 pg/tube. The intra- and inter-experiment variations in determination were 5 and 15% respectively [cf Rivet J. M. et al, Eur. J. Pharmacol., 183,634-635 (1990)].
The CS base rates in the plasma never being zero, the following formula was used to calculated the percentage inhibition of plasma CS induced by 8-OH-DPAT: [formula]
as §7, §8

[5] = agonist test, compound alone s.c., minimum effective dose vs control

ED50 ([1]; agonist test, compound alone s.c., read-out: FBP ED50 (95% CL) alone): > 10 mg/kg
ED50 ([1]; antagonist test, s.c., vs 8-OH-DPAT 0.16 mg/kg s.c., read-out: FBP ID50 (95% CL) + DPAT): 0.48 mg/kg
% MPA (% maximum possible antagonism), FBP ([1]; vs 8-OH-DPAT 0.16 mg/kg s.c.): 100%
STFs MED alone [2, 5]: > 10.0 mg/kg
ED50 ([2]; rat, sc, antagonist test, s.c., vs 8-OH-DPAT 0.63 mg/kg s.c., read-out: STFs ID50 (95% CL) + DPAT): 0.12 mg/kg
% MPA (% maximum possible antagonism), STFs ([2]; vs 8-OH-DPAT 0.63 mg/kg s.c.): 92%
Ki [3]: 1.74 nM
CS secretion MED alone [4, 5]: 10.0 mg/kg
ED50 ([4]; rat, sc, antagonist test, s.c., vs 8-OH-DPAT 0.16 mg/kg s.c., read-out: CS secretion ID50 (95% CL) + DPAT): 0.43 mg/kg
% MPA (% maximum possible antagonism), CS secretion ([4]; vs 8-OH-DPAT 0.16 mg/kg s.c.): 100%
Structure (SMILES): c1cc2c(c(N3CCN(CCCc4ccsc4)CC3)c1)OCCO2 [Example 1, 4-(Benzodioxan-5-yl)-1-[3-(thiophen-3-yl)propyl]piperazine]
